Measurements: patent publication US12606571B2, “Macrocyclic compounds and uses thereof” (TURNING POINT THERAPEUTICS, INC., priority 2017, dated 2026)
pIC50: −log10 of the molar value.

Assays:
MKN-45 cells = experiment: Scratch wound healing assay, MKN-45; format: cell-based; details: 36-48 hours treatment
Method: MKN-45 or HCC827 cells were seeded in 24-well plate. After 12-24 hours, confluent cell monolayers were gently scraped with a sterile pipette tip to form a scratch. The plates were washed with fresh medium, and the cells were incubated with medium alone or medium containing various concentration of compounds. After 36-48 hours, the plates were examined and recorded by an EVOS FL microscopy (Life Technology) to monitor rescaling of the cell monolayer.

LU2503 tumors = experiment: LU2503 patient derived xenograft (PDX) NSCLC model
Method: Primary human tumor xenograft model LU2503 tumors were grown in stock mice. Tumor fragments (2-3 mm in diameter) were harvested from stock mice and inoculated into the right front back of each mouse for tumor development. 16 mice were enrolled in the study. All animals were randomly allocated to the 2 different study groups. Tumor size and body weight were measured on designated days. Tumor size was measured using a caliper and tumor volume was calculated as the product of length*width^2*0.5.

SRC = biological target: T1, SRC (Homo sapiens, UniProt P12931); experiment: Biochemical kinase assay (Reaction Biology), SRC; details: 10 μM ATP; read-out: Enzymatic Kinase SRC IC50
T1 construct: purchased Reaction Biology Corporation (assay service; enzyme from the CRO's panel)
Method: The biochemical kinase assay was performed at Reaction Biology Corporation (www.reactionbiology.com, Malvern, PA) following the procedures described in the reference (Anastassiadis T, et al Nat Biotechnol. 2011, 29, 1039). Specific kinase/substrate pairs along with required cofactors were prepared in reaction buffer; 20 mM Hepes pH 7.5, 10 mM MgCl2,1 mM EGTA, 0.02% Brij35, 0.02 mg/ml BSA, 0.1 mM Na3VO4, 2 mM DTT, 1% DMSO (for specific details of individual kinase reaction components see Supplementary Table 2). Compounds were delivered into the reaction, followed ˜20 minutes later by addition of a mixture of ATP (Sigma, St. Louis MO) and ^33P ATP (Perkin Elmer, Waltham MA) to a final concentration of 10 μM. Reactions were carried out at room temperature for 120 min, followed by spotting of the reactions onto P81 ion exchange filter paper (Whatman Inc., Piscataway, NJ). Unbound phosphate was removed by extensive washing of filters in 0.75% phosphoric acid. […] IC50 values and curve fits were obtained using Prism (GraphPad Software).
The enzymatic kinase inhibition activities at 10 μM ATP concentration were determined at Reaction Biology.

MC38 syngeneic tumors = experiment: Combination efficacy study with PD-1 antibody in MC38 syngeneic model; format: in vivo, mouse
Method: C57BL/6J female mice (6 weeks) were purchased from the Jackson Laboratory, and maintained in accordance with the guidelines for the care and use of laboratory animals. Half million MC38 cancer cells in 100 μL serum-free medium were implanted subcutaneously in the right flank region of the mouse. Tumor size and body weight were measured on designated days. Tumor size was measured with an electronic caliper and tumor volume was calculated as the product of length*width^2*0.5. […] Vehicle control, Compound 5, PD-1 antibody or Compound 5 plus PD-1 antibody were administered orally (BID) at determined doses.
Anti-tumor effects of Compound 5 combined with PD-1 antibody on MC38 syngeneic tumors was analyzed by tumor volume. The average tumor volume of vehicle control group (G1) on day 20 was 1938.58±729.41, Compound 5 treated group (G2) was 1220.03±521.39 mm3, PD-1 antibody treatment group was 821.24±767.16, and Compound 5 plus PD-1 antibody treatment was 515.63±350.47.

[1] = tested on: MET phosphorylation and downstream signaling in MKN-45 cells; experiment: Immunoblotting for cellular kinase phosphorylation, MKN-45; format: cell-based; details: 16 hour incubation
Method: Half a million cells per well were seeded in 24 well plate for 24 hrs, and then treated with compounds for 4 hours. Cells were collected after treatment and lysed in RIPA buffer (50 mM Tris, pH 7.4, 150 mM NaCl, 1% NP-40, 0.5% Deoxycholate, 0.1% SDS) supplemented with 10 mM EDTA, 1× Halt protease and phosphatase inhibitors (Thermo Scientific). […] Membranes were incubated with chemiluminescent substrate for 5 min at room temperature (SuperSignal West Femto, Thermo Scientific). The chemiluminescent images were acquired with a C-DiGit Imaging System (LI-COR Biosciences). The relative density of the chemiluminescent bands were quantified via Image Studio Digits from LICOR. The half inhibitory concentration (IC50) value is calculated using non-linear regression analysis through GraphPad Prism software (GraphPad, Inc., San Diego, CA).

T1 sequence (P12931 whole entry): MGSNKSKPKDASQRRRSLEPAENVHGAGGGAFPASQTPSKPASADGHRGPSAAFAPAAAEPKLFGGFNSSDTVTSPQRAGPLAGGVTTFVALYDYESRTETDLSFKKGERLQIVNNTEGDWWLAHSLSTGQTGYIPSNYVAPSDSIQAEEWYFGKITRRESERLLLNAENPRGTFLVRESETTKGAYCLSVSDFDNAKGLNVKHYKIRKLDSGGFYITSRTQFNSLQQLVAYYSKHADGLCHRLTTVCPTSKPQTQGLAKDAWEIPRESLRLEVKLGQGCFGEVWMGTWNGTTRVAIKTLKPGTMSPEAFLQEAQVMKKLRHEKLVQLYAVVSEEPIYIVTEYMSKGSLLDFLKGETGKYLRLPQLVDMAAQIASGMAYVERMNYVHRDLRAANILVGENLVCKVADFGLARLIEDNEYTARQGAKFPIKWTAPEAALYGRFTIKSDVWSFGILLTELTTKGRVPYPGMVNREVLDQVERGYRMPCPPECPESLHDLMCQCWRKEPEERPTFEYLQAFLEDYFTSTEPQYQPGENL

Structure (SMILES): CCN1Cc2c(ccc(F)c2C#N)O[C@@H](C)CNC(=O)c2c(N)nn3ccc1nc23 [Compound 5, (7S)-3-amino-14-ethyl-11-fluoro-7-methyl-4-oxo-4,5,6,7,13,14-hexahydro-1,15-ethenopyrazolo[4,3-f][1,4,8,10]benzoxatriazacyclotridecine-12-carbonitrile]
- cell migration of MKN-45 cells, wound healing (MKN-45 cells): inhibited
- tumor regression (LU2503 tumors; 15 mg/kg, BID for 13 days): 85%
- body weight (LU2503 tumors; 21 days of BID treatment at 15 mg/kg): No body weight loss
- pIC50 (SRC): 9.92
- average tumor volume (MC38 syngeneic tumors; day 20): 1220.03±521.39 mm3
- body weight and overt abnormality (MC38 syngeneic tumors; mouse, in vivo): No body weight loss and overt abnormality
- phosphorylation of MET and downstream effectors (gel) [1]: inhibited
